Where a SMILES comes first, the peptide text is derived from it. Bridges are numbered along the chain shown (N, C = ends). [ ]: non-standard residue; d: D form. hMet = CSCCC[C@H](N)C(=O)O

Results on 15 compounds are retold here after ChEMBL document CHEMBL4011630 (J Med Chem, 2017).

Test [1] has as its target T1, Nicotinic acetylcholine receptor alpha6/alpha3/beta4 (Rattus norvegicus, UniProt P04757+P12392+P43143). Description: Antagonist activity at rat alpha6/alpha3beta4 nACHR expressed in xenopous laevis oocyte assessed as inhibition of ACh induced channel current at -80 mV holding potential by two electrode voltage clamp method.
A further test is filed under the species Rattus norvegicus. The test can be described thus: Selectivity ratio of IC50 for rat alpha6/alpha3beta4 nACHR expressed in xenopous laevis oocyte at -80 mV holding potential to IC50 for rat alpha3beta4 nACHR expressed in xenopous laevis oocyte at -80 mV holding potential.
Test [2] addresses T2, Neuronal acetylcholine receptor; alpha3/beta4 (Rattus norvegicus, UniProt P04757+P12392). The test can be described thus: Antagonist activity at rat alpha3beta4 nACHR expressed in xenopous laevis oocyte assessed as inhibition of ACh induced channel current at -80 mV holding potential by two electrode voltage clamp method.
The target of test [3] is T2, Neuronal acetylcholine receptor; alpha3/beta4. The test can be described thus: Antagonist activity at rat alpha3beta4 nACHR expressed in xenopous laevis oocyte assessed as inhibition of ACh induced channel current after 5 mins at -70 mV holding potential by two electrode voltage clamp method.
Test [4] deals with T1, Nicotinic acetylcholine receptor alpha6/alpha3/beta4. The test can be described thus: Antagonist activity at rat alpha6/alpha3beta4 nACHR expressed in xenopous laevis oocyte assessed as inhibition of ACh induced channel current after 5 mins at -70 mV holding potential by two electrode voltage clamp method.
In test [5] the target is Nicotinic acetylcholine receptor alpha9/alpha10 (Rattus norvegicus, UniProt P43144+Q9JLB5). The test can be described thus: Antagonist activity at rat alpha9alpha10 nACHR expressed in xenopous laevis oocyte assessed as inhibition of ACh induced channel current after 5 mins at -70 mV holding potential by two electrode voltage clamp method.
The target in test [6] is Neuronal acetylcholine receptor; alpha3/beta2 (Rattus norvegicus, UniProt P04757+P12390). The test can be described thus: Antagonist activity at rat alpha3beta2 nACHR expressed in xenopous laevis oocyte assessed as inhibition of ACh induced channel current after 5 mins at -70 mV holding potential by two electrode voltage clamp method.
Test [7] concerns the target Neuronal acetylcholine receptor subunit alpha-7 (Rattus norvegicus, UniProt Q05941). The test can be described thus: Antagonist activity at rat alpha7 nACHR expressed in xenopous laevis oocyte assessed as inhibition of ACh induced channel current after 5 mins at -70 mV holding potential by two electrode voltage clamp method.
In test [8] the target is Neuronal acetylcholine receptor; alpha4/beta4 (Rattus norvegicus, UniProt P09483+P12392). The test can be described thus: Antagonist activity at rat alpha4beta4 nACHR expressed in xenopous laevis oocyte assessed as inhibition of ACh induced channel current after 5 mins at -70 mV holding potential by two electrode voltage clamp method.
Test [9] has as its target Neuronal acetylcholine receptor; alpha2/beta4 (Rattus norvegicus, UniProt P12389+P12392). The test can be described thus: Antagonist activity at rat alpha2beta4 nACHR expressed in xenopous laevis oocyte assessed as inhibition of ACh induced channel current after 5 mins at -70 mV holding potential by two electrode voltage clamp method.
The target of test [10] is Neuronal acetylcholine receptor; alpha2/beta2 (Rattus norvegicus, UniProt P12389+P12390). Description: Antagonist activity at rat alpha2beta2 nACHR expressed in xenopous laevis oocyte assessed as inhibition of ACh induced channel current after 5 mins at -70 mV holding potential by two electrode voltage clamp method.
Test [11] deals with Neuronal acetylcholine receptor; alpha4/beta2 (Rattus norvegicus, UniProt P09483+P12390). Description: Antagonist activity at rat alpha4beta2 nACHR expressed in xenopous laevis oocyte assessed as inhibition of ACh induced channel current after 5 mins at -70 mV holding potential by two electrode voltage clamp method.

T2 sequence (P04757 whole entry): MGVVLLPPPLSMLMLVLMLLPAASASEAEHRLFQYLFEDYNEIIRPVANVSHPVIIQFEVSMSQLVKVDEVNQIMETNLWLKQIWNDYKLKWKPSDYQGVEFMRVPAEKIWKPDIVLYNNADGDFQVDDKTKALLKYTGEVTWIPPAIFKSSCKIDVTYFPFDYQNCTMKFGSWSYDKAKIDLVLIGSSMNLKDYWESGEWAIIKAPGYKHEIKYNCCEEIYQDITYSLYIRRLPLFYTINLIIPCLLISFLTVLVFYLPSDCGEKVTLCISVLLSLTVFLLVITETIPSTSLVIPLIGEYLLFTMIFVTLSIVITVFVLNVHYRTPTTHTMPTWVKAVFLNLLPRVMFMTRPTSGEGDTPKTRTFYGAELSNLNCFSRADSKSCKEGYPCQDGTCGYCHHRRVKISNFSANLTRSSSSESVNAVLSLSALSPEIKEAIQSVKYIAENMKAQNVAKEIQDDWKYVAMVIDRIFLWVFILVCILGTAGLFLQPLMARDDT
T2 sequence (P12392 whole entry): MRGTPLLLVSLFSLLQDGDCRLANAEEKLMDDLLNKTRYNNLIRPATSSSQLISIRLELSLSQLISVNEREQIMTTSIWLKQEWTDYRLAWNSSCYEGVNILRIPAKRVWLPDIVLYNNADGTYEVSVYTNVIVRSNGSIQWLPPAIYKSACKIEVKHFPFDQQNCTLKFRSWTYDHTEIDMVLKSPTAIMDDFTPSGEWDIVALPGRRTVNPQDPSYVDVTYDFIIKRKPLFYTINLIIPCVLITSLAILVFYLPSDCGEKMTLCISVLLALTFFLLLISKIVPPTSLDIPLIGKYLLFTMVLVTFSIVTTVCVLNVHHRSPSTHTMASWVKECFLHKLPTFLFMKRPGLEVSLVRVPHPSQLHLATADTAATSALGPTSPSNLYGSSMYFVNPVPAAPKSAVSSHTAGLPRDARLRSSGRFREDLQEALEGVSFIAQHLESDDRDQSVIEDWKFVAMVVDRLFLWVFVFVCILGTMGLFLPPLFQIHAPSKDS
T1 sequence (P04757 whole entry): as the sequence (P04757 whole entry) above
T1 sequence (P12392 whole entry): as the sequence (P12392 whole entry) above
T1 sequence (P43143 whole entry): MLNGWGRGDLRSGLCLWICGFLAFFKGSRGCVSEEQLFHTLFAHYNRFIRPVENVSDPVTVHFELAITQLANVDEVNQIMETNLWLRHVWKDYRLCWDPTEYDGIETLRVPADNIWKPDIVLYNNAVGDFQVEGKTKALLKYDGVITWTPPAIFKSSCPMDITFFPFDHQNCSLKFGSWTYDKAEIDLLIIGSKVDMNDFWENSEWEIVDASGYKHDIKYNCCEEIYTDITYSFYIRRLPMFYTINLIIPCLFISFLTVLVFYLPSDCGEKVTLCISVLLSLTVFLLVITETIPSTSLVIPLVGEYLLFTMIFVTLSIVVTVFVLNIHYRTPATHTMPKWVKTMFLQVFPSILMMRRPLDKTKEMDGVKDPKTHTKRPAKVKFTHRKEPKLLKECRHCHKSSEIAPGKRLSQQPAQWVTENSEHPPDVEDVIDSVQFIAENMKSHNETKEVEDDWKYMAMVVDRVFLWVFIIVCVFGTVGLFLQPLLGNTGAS
Chain of Neuronal acetylcholine receptor subunit alpha-7 (Q05941 whole entry): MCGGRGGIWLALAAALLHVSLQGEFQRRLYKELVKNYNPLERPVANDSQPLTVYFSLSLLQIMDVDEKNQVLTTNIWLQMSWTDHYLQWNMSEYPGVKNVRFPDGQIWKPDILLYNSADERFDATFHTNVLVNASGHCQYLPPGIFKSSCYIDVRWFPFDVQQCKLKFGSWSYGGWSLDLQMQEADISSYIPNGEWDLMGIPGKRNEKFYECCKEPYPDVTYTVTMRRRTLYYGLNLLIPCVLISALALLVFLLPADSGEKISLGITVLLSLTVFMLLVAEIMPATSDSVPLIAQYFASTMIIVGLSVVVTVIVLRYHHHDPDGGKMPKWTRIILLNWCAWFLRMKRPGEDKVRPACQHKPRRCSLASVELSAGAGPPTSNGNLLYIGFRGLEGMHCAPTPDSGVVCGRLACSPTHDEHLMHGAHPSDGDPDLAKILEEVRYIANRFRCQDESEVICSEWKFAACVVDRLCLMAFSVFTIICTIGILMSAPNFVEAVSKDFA
Chain of Neuronal acetylcholine receptor; alpha3/beta2 (P04757 whole entry): as the sequence (P04757 whole entry) above
Chain of Neuronal acetylcholine receptor; alpha3/beta2 (P12390 whole entry): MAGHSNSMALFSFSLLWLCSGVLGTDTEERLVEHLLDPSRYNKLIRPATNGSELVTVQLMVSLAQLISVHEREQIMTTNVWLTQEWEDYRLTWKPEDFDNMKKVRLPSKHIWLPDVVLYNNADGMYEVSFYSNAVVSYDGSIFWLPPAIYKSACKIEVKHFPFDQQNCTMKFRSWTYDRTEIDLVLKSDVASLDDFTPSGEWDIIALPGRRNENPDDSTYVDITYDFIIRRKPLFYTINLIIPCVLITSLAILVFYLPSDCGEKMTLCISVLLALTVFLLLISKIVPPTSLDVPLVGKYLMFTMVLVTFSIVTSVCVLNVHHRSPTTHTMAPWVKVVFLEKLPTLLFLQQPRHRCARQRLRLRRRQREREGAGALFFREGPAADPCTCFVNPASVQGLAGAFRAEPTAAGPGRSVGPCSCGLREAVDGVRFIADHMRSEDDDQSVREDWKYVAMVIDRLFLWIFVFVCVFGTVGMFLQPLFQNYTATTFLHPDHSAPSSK
Chain of Nicotinic acetylcholine receptor alpha9/alpha10 (P43144 whole entry): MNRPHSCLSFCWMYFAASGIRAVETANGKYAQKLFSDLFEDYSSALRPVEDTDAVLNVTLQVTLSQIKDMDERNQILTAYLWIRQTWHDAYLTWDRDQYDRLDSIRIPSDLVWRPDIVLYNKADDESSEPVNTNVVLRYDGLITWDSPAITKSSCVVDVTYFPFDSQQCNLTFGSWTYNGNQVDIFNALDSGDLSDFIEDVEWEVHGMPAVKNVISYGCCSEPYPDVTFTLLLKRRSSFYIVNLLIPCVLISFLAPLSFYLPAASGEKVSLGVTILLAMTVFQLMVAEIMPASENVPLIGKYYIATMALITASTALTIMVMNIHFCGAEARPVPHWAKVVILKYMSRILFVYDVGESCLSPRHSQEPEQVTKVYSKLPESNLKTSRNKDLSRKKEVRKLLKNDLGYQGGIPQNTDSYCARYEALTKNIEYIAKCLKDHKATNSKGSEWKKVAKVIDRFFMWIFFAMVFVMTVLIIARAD
Chain of Nicotinic acetylcholine receptor alpha9/alpha10 (Q9JLB5 whole entry): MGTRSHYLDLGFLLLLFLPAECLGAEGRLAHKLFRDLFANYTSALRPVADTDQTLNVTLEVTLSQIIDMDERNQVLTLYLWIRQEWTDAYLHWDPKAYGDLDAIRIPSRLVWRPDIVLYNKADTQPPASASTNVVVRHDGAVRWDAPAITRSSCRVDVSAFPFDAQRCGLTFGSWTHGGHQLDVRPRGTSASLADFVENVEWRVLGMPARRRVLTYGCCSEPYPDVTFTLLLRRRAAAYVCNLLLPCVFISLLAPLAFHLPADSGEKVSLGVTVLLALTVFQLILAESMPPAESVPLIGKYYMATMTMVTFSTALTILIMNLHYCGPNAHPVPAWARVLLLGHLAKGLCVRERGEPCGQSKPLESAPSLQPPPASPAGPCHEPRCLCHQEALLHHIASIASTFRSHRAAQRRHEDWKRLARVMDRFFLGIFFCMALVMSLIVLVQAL

On to `CC[C@H](C)[C@@H]1NC(=O)[C@H](Cc2cnc[nH]2)NC(=O)[C@@H]2CCCN2C(=O)[C@H](C)NC(=O)[C@H](C)NC(=O)[C@H](C(C)C)NC(=O)[C@H](CC(N)=O)NC(=O)[C@@H]2CSSC[C@H](NC(=O)[C@@H](NC(=O)CN)CSSC[C@H](C(=O)O)NC1=O)C(=O)N[C@@H](CO)C(=O)N[C@@H](Cc1c[nH]cn1)C(=O)N1CCC[C@H]1C(=O)N[C@@H](C)C(=O)N2`, for which the IC50 was determined as 5100 nM in test [1] and 370 nM in test [2]. The Ratio IC50 in the test listed under Rattus norvegicus amounted to 14.
For `CC[C@H](C)[C@@H]1NC(=O)[C@H](Cc2cnc[nH]2)NC(=O)[C@@H]2CCCN2C(=O)[C@H](CC(N)=O)NC(=O)[C@H](CC(N)=O)NC(=O)[C@H](C(C)C)NC(=O)[C@H](CC(N)=O)NC(=O)[C@@H]2CSSC[C@H](NC(=O)[C@@H](NC(=O)CN)CSSC[C@H](C(=O)O)NC1=O)C(=O)N[C@@H](CO)C(=O)N[C@@H](Cc1c[nH]cn1)C(=O)N1CCC[C@H]1C(=O)N[C@@H](C)C(=O)N2`, the concentration for half-maximal inhibition (IC50) in test [1] came out at 147 nM; in [2] it was 47.3 nM. In the test listed under Rattus norvegicus, the Ratio IC50 was 3.1.
In the case of `CC(C)C[C@@H]1NC(=O)[C@H](C(C)C)NC(=O)[C@H](C)NC(=O)[C@@H]2CSSC[C@H](NC(=O)CN)C(=O)N[C@@H](CSSC[C@H](C(N)=O)NC(=O)[C@H](Cc3ccc(O)cc3)NC1=O)C(=O)N[C@@H](CO)C(=O)N[C@@H](C)C(=O)N[C@@H](CCCN)C(=O)N1CCC[C@H]1C(=O)N2`, the IC50 in [3] was found to be 1200 nM; in [4], 58.1 nM.
The matching figures for `CC[C@H](C)[C@@H]1NC(=O)[C@@H]2CCCN2C(=O)[C@H](CO)NC(=O)[C@H](CCCSC)NC(=O)[C@H](C)NC(=O)[C@H](CO)NC(=O)[C@@H]2CSSC[C@H](NC(=O)[C@H](C)N)C(=O)N[C@@H](CSSC[C@@H](C(N)=O)NC1=O)C(=O)N[C@@H](CO)C(=O)N[C@@H](Cc1cnc[nH]1)C(=O)N1CCC[C@H]1C(=O)N[C@@H](C(C)C)C(=O)N2` (H-ACCSHPVCSA[hMet]SPIC-NH2; disulfide 2-8, 3-15): 61.9 nM and 278 nM.
The matching figures for `CC[C@H](C)[C@@H]1NC(=O)[C@@H]2CCCN2C(=O)[C@H](CO)NC(=O)[C@H](CCCSC)NC(=O)[C@H](C)NC(=O)[C@H](CO)NC(=O)[C@@H]2CSSC[C@H](NC(=O)CN)C(=O)N[C@@H](CSSC[C@@H](C(N)=O)NC1=O)C(=O)N[C@@H](C)C(=O)N[C@@H](Cc1cnc[nH]1)C(=O)N1CCC[C@H]1C(=O)N[C@@H](C(C)C)C(=O)N2` (H-GCCAHPVCSA[hMet]SPIC-NH2; disulfide 2-8, 3-15): 10.8 nM and 64.1 nM.
For the compound `CC[C@H](C)[C@@H]1NC(=O)[C@@H]2CCCN2C(=O)[C@H](CO)NC(=O)[C@H](CCCSC)NC(=O)[C@H](C)NC(=O)[C@H](CO)NC(=O)[C@@H]2CSSC[C@H](NC(=O)CN)C(=O)N[C@@H](CSSC[C@@H](C(N)=O)NC1=O)C(=O)N[C@@H](CO)C(=O)N[C@@H](C)C(=O)N1CCC[C@H]1C(=O)N[C@@H](C(C)C)C(=O)N2` (H-GCCSAPVCSA[hMet]SPIC-NH2; disulfide 2-8, 3-15), the IC50 in test [3] and in test [4] was over 10000 nM in each case.
Consider `CC[C@H](C)[C@@H]1NC(=O)[C@@H]2CCCN2C(=O)[C@H](CO)NC(=O)[C@H](CCCSC)NC(=O)[C@H](C)NC(=O)[C@H](CO)NC(=O)[C@@H]2CSSC[C@H](NC(=O)CN)C(=O)N[C@@H](CSSC[C@@H](C(N)=O)NC1=O)C(=O)N[C@@H](CO)C(=O)N[C@@H](Cc1cnc[nH]1)C(=O)N[C@@H](C)C(=O)N[C@@H](C(C)C)C(=O)N2` (H-GCCSHAVCSA[hMet]SPIC-NH2; disulfide 2-8, 3-15), for which the IC50 in test [3] and in [4] was over 10000 nM in each case.
In the case of `CC[C@H](C)[C@@H]1NC(=O)[C@@H]2CCCN2C(=O)[C@H](CO)NC(=O)[C@H](CCCSC)NC(=O)[C@H](C)NC(=O)[C@H](C)NC(=O)[C@@H]2CSSC[C@H](NC(=O)CN)C(=O)N[C@@H](CSSC[C@@H](C(N)=O)NC1=O)C(=O)N[C@@H](CO)C(=O)N[C@@H](Cc1cnc[nH]1)C(=O)N1CCC[C@H]1C(=O)N[C@@H](C(C)C)C(=O)N2` (H-GCCSHPVCAA[hMet]SPIC-NH2; disulfide 2-8, 3-15), the IC50 in test [5], in [6], in test [7], in test [8], in test [9] and in [10] was over 10 µM in each case. Further, the concentration for half-maximal inhibition (IC50) in test [11] is over 10 µM.
Turning to `CC[C@H](C)[C@@H]1NC(=O)[C@H](C)NC(=O)[C@H](CO)NC(=O)[C@H](CCCSC)NC(=O)[C@H](C)NC(=O)[C@H](CO)NC(=O)[C@@H]2CSSC[C@H](NC(=O)CN)C(=O)N[C@@H](CSSC[C@@H](C(N)=O)NC1=O)C(=O)N[C@@H](CO)C(=O)N[C@@H](Cc1cnc[nH]1)C(=O)N1CCC[C@H]1C(=O)N[C@@H](C(C)C)C(=O)N2` (H-GCCSHPVCSA[hMet]SAIC-NH2; disulfide 2-8, 3-15), the IC50 in test [3] and in test [4] was over 10000 nM each time.
As for `CSCCC[C@@H]1NC(=O)[C@H](C)NC(=O)[C@H](CO)NC(=O)[C@@H]2CSSC[C@H](NC(=O)CN)C(=O)N[C@@H](CSSC[C@@H](C(N)=O)NC(=O)[C@H](C)NC(=O)[C@@H]3CCCN3C(=O)[C@H](CO)NC1=O)C(=O)N[C@@H](CO)C(=O)N[C@@H](Cc1cnc[nH]1)C(=O)N1CCC[C@H]1C(=O)N[C@@H](C(C)C)C(=O)N2` (H-GCCSHPVCSA[hMet]SPAC-NH2; disulfide 2-8, 3-15), the IC50 in test [3] amounted to 16.1 nM; in test [4] it was 45.8 nM.
The matching figures for `CSCCC[C@@H]1NC(=O)[C@H](C)NC(=O)[C@H](CO)NC(=O)[C@@H]2CSSC[C@H](NC(=O)CN)C(=O)N[C@@H](CSSC[C@@H](C(N)=O)NC(=O)[C@H](CC(=O)O)NC(=O)[C@@H]3CCCN3C(=O)[C@H](CO)NC1=O)C(=O)N[C@@H](CO)C(=O)N[C@@H](Cc1cnc[nH]1)C(=O)N1CCC[C@H]1C(=O)N[C@@H](C(C)C)C(=O)N2` (H-GCCSHPVCSA[hMet]SPDC-NH2; disulfide 2-8, 3-15): 9.2 nM and 67.4 nM.
As to `CSCCC[C@@H]1NC(=O)[C@H](C)NC(=O)[C@H](CO)NC(=O)[C@@H]2CSSC[C@H](NC(=O)CN)C(=O)N[C@@H](CSSC[C@@H](C(N)=O)NC(=O)[C@H](CCCNC(=N)N)NC(=O)[C@@H]3CCCN3C(=O)[C@H](CO)NC1=O)C(=O)N[C@@H](CO)C(=O)N[C@@H](Cc1cnc[nH]1)C(=O)N1CCC[C@H]1C(=O)N[C@@H](C(C)C)C(=O)N2` (H-GCCSHPVCSA[hMet]SPRC-NH2; disulfide 2-8, 3-15), the IC50 in test [3] was 9.8 nM; in test [4], 40.8 nM.
The matching figures for `CSCCC[C@@H]1NC(=O)[C@H](C)NC(=O)[C@H](CO)NC(=O)[C@@H]2CSSC[C@H](NC(=O)CN)C(=O)N[C@@H](CSSC[C@@H](C(N)=O)NC(=O)[C@H](Cc3ccc(O)cc3)NC(=O)[C@@H]3CCCN3C(=O)[C@H](CO)NC1=O)C(=O)N[C@@H](CO)C(=O)N[C@@H](Cc1cnc[nH]1)C(=O)N1CCC[C@H]1C(=O)N[C@@H](C(C)C)C(=O)N2` (H-GCCSHPVCSA[hMet]SPYC-NH2; disulfide 2-8, 3-15): 10 nM and 38.7 nM.
The matching figures for `CC[C@H](C)[C@@H]1NC(=O)[C@H](CO)NC(=O)[C@@H]2CSSC[C@H](NC(=O)CN)C(=O)N[C@@H](CSSC[C@@H](C(N)=O)NC(=O)[C@H]([C@@H](C)CC)NC(=O)[C@@H]3CCCN3C(=O)[C@H](CO)NC(=O)[C@H](CCCSC)NC1=O)C(=O)N[C@@H](CO)C(=O)N[C@@H](Cc1cnc[nH]1)C(=O)N1CCC[C@H]1C(=O)N[C@@H](C(C)C)C(=O)N2` (H-GCCSHPVCSI[hMet]SPIC-NH2; disulfide 2-8, 3-15): 74.9 nM and 50.4 nM.
Consider `C[C@@H]1NC(=O)[C@H](Cc2ccc(O)cc2)NC(=O)[C@@H]2CSSC[C@H](NC(=O)CN)C(=O)N[C@@H](CSSC[C@@H](C(N)=O)NC(=O)[C@H](CC(=O)O)NC(=O)[C@@H]3CCCN3C(=O)[C@H](CC(N)=O)NC(=O)[C@H]([C@@H](C)O)NC1=O)C(=O)N[C@@H](CO)C(=O)N[C@@H](Cc1ccc(O)cc1)C(=O)N1CCC[C@H]1C(=O)N1CCC[C@H]1C(=O)N2` (H-GCCSYPPCYATNPDC-NH2; disulfide 2-8, 3-15), for which the IC50 in [3] is 750 nM.
